In patent publication US11672788B2, “Histone deacetylase inhibitors for immunomodulation in tumor microenvironment” (GREAT NOVEL THERAPEUTICS BIOTECH & MEDICALS CORPORATION, priority 2020, dated 2023):
Converted amounts (≈) assume the structure as drawn. “Also recorded” adds a separate entry of the source.

What was measured:
Saturation solubility = type: physicochemical; conditions: water, thermodynamic from solid, ddH2O, 25° C., mean ± SD, BDL: Below detection limit
Method: Samples of 5 mg of compounds were added to 5 ml volumetric flasks containing ddH2O and shaken at 100 rpm in an incubator at 25° C. for 90 minutes. The resulting suspension was filtered through a 0.22 μm filter. The concentrations of compounds were determined spectrophotometrically at 256 nm. The saturation solubility of each sample was determined in triplicates and the mean value and standard deviation were reported.

M10 = experiment: In vitro cytotoxicity MTT assay; type: cell-based, human; conditions: Homo sapiens, M10, 72 h, IC50 ± SD
Summary of the method: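 Cells were seeded per well at 2.4×10^4 for SW48, MDA-MB-453 and NCI-N87, and at 6×10^3 for MDA-MB-231. Viability was determined by MTT assay after 72 h.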

MDA-MB-231 = experiment: In vitro cytotoxicity MTT assay; type: cell-based, human; conditions: Homo sapiens, MDA-MB-231, 72 h, IC50 ± SD
Summary of the method: (§1)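 After plating MDA-MB-453, NCI-N87 and SW48 at 2.4×10^4 and MDA-MB-231 at 6×10^3 in 96 wells, cultures were incubated for 72 h. Cellular viability was then quantified with an MTT assay.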

MDA-MB-453 = experiment: In vitro cytotoxicity MTT assay; type: cell-based, human; conditions: Homo sapiens, MDA-MB-453, 72 h, IC50 ± SD
Summary of the method: as §1

SW48 = experiment: In vitro cytotoxicity MTT assay; type: cell-based, human; conditions: Homo sapiens, SW48, 72 h, IC50 ± SD
Summary of the method: as §1

M10 cells = experiment: Cell cycle arrest by PI flow cytometry; type: cell-based, human; conditions: M10, 12.5 μM, 72 h
Method: A PI/RNase staining assay (BD Bioscience™) was performed to reveal the presence of cell cycle arrest and apoptotic cells after treatment with GNTbm compounds, Chidamide and Entinostat. […] After treatment cells were harvested, fixed with 80% ethanol for 24 h, washed with 1×PBS and stained with PI/RNase for 15 min at room temperature. The cells were then analyzed using Flow Cytometer within 1 h.

HDAC1 = HDAC1 (Homo sapiens (Human), UniProt Q13547); experiment: HDACs 1-11 enzymatic inhibition by BPS Bioscience
Chain of HDAC1 (Q13547 whole entry): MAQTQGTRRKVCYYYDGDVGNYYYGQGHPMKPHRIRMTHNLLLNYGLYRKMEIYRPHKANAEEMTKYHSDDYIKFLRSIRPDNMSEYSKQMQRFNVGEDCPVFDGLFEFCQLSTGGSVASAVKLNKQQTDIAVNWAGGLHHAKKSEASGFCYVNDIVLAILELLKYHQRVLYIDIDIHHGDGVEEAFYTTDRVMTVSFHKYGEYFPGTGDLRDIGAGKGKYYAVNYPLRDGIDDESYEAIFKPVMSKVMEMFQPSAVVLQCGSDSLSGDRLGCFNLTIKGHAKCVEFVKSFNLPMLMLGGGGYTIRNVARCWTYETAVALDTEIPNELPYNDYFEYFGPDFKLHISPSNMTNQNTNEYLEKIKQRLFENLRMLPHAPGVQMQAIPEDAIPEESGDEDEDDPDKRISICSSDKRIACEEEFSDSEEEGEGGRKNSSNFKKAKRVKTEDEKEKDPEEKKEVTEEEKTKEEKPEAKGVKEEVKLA
Method: (§2) HDAC assay was performed according to standard Protocols (Fluorgenic HDACs 1-11 assay kit, BPS Bioscience™). […] After 0.5 h, assay developer was added to the samples and the absorbance was read at fluorogenic wavelength. The relative inhibition to HDACs 1, 2, 3, 4, 5, 6, 7, 8, 9, and 11 activities was determined in each sample. […] All of the compounds were dissolved in DMSO. The serial dilution of the compounds was first performed in 100% DMSO with the highest concentration at 1 mM. Each intermediate compound dilution (in 100% DMSO) would then get directly diluted 10× fold into assay buffer for an intermediate dilution of 10% DMSO in HDAC assay buffer and 5 μl of the dilution was added to a 50 μl reaction so that the final concentration of DMSO is 1% in all of the reactions. […] Fluorescence intensity was measured at an excitation of 360 nm and an emission of 460 nm using a Tecan Infinite M1000 microplate reader. […] The fluorescent intensity data were analyzed using the computer software, Graphpad Prism. […] The percent activity in the presence of each compound was calculated according to the following equation: % activity=(F−Fb)/(Ft−Fb), where F=the fluorescent intensity in the presence of the compound. […] The IC50 value was determined by the concentration causing a half-maximal percent activity.

HDAC2 = HDAC2 (Homo sapiens (Human), UniProt Q92769); experiment: HDACs 1-11 enzymatic inhibition by BPS Bioscience
Chain of HDAC2 (Q92769 whole entry): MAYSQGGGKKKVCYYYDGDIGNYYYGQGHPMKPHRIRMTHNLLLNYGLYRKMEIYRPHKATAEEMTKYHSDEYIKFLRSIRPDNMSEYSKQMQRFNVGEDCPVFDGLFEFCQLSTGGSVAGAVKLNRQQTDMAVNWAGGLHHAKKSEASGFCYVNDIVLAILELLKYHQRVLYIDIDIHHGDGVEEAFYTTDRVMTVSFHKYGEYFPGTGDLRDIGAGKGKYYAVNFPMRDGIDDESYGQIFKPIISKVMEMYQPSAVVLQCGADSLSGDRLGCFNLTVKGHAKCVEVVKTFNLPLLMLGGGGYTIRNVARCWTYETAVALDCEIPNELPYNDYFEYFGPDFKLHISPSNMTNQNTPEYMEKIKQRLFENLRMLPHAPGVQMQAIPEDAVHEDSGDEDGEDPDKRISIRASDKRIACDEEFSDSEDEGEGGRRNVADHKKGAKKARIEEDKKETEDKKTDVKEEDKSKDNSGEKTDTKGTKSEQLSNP
Method: as §2

HDAC7 = HDAC7 (Homo sapiens (Human), UniProt Q8WUI4); experiment: HDACs 1-11 enzymatic inhibition by BPS Bioscience
Chain of HDAC7 (Q8WUI4 whole entry): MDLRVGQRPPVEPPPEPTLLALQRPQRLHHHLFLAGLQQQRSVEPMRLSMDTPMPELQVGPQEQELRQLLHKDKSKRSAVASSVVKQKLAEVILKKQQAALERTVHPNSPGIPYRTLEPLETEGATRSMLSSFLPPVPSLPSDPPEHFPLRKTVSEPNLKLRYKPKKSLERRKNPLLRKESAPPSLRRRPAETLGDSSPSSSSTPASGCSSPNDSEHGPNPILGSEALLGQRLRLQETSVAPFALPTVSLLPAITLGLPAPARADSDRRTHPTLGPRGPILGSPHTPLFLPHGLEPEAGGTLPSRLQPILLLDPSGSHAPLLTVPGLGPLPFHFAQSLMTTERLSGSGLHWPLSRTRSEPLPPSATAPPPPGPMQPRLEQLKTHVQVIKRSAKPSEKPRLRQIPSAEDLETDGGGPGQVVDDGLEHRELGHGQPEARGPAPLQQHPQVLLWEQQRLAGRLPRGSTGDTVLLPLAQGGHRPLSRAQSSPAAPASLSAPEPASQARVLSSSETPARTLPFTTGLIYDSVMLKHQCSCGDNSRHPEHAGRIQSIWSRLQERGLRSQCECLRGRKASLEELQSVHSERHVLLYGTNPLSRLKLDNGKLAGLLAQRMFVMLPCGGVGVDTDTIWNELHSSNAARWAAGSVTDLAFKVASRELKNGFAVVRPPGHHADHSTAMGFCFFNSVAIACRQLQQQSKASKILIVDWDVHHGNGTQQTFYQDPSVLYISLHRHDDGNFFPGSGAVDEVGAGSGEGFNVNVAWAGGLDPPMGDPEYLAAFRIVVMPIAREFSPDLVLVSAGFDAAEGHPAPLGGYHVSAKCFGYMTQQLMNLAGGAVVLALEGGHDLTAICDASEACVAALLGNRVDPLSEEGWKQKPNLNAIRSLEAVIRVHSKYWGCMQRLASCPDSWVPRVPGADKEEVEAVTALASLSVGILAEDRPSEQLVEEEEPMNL
Method: (§3) HDAC assay was performed according to standard Protocols (Fluorgenic HDACs 1-11 assay kit, BPS Bioscience™). […] After 0.5 h, assay developer was added to the samples and the absorbance was read at fluorogenic wavelength. The relative inhibition to HDACs 1, 2, 3, 4, 5, 6, 7, 8, 9, and 11 activities was determined in each sample. […] All of the compounds were dissolved in DMSO. The serial dilution of the compounds was first performed in 100% DMSO with the highest concentration at 1 mM. Each intermediate compound dilution (in 100% DMSO) would then get directly diluted 10× fold into assay buffer for an intermediate dilution of 10% DMSO in HDAC assay buffer and 5 μl of the dilution was added to a 50 μl reaction so that the final concentration of DMSO is 1% in all of the reactions. The enzymatic reactions for the HDAC enzymes were conducted in duplicate at 37° C. for 30 minutes in a 50 μl mixture containing HDAC assay buffer, 5 μg BSA, an HDAC substrate, a HDAC enzyme and a test compound. After enzymatic reactions, 50 μl of 2×HDAC Developer was added to each well for the HDAC enzymes and the plate was incubated at room temperature for an additional 15 minutes. Fluorescence intensity was measured at an excitation of 360 nm and an emission of 460 nm using a Tecan Infinite M1000 microplate reader. HDAC activity assays were performed in duplicate at each concentration. The fluorescent intensity data were analyzed using the computer software, Graphpad Prism. In the absence of the compound, the fluorescent intensity (Ft) in each data set was defined as 100% activity. In the absence of HDAC, the fluorescent intensity (Fb) in each data set was defined as 0% activity. The percent activity in the presence of each compound was calculated according to the following equation: % activity=(F−Fb)/(Ft−Fb), where F=the fluorescent intensity in the presence of the compound. […] The IC50 value was determined by the concentration causing a half-maximal percent activity.

HDAC8 = HDAC8 (Homo sapiens (Human), UniProt Q9BY41); experiment: HDACs 1-11 enzymatic inhibition by BPS Bioscience
Chain of HDAC8 (Q9BY41 whole entry): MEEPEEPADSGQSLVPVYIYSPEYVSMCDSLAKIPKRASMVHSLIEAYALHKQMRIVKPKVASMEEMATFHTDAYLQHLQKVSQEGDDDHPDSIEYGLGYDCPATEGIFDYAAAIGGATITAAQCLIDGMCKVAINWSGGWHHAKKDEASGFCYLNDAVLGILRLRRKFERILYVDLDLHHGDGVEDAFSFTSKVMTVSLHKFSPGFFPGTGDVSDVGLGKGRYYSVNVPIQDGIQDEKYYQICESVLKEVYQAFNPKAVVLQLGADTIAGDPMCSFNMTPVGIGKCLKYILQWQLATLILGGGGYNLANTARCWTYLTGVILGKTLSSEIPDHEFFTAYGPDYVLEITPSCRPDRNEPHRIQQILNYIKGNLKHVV
Method: as §3

HDAC11 = HDAC11 (Homo sapiens (Human), UniProt Q96DB2); experiment: HDACs 1-11 enzymatic inhibition by BPS Bioscience
Chain of HDAC11 (Q96DB2 whole entry): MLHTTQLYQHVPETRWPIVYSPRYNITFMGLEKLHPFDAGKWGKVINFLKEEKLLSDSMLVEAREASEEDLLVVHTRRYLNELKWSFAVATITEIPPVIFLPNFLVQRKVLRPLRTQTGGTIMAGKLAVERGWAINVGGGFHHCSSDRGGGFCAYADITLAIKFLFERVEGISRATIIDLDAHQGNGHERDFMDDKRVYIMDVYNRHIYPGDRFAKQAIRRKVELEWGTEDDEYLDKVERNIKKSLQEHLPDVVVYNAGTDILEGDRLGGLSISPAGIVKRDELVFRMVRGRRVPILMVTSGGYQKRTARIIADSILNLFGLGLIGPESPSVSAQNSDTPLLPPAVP
Method: HDAC assay was performed according to standard Protocols (Fluorgenic HDACs 1-11 assay kit, BPS Bioscience™). […] After 0.5 h, assay developer was added to the samples and the absorbance was read at fluorogenic wavelength. The relative inhibition to HDACs 1, 2, 3, 4, 5, 6, 7, 8, 9, and 11 activities was determined in each sample. […] All of the compounds were dissolved in DMSO. The serial dilution of the compounds was first performed in 100% DMSO with the highest concentration at 1 mM. Each intermediate compound dilution (in 100% DMSO) would then get directly diluted 10× fold into assay buffer for an intermediate dilution of 10% DMSO in HDAC assay buffer and 5 μl of the dilution was added to a 50 μl reaction so that the final concentration of DMSO is 1% in all of the reactions. The enzymatic reactions for the HDAC enzymes were conducted in duplicate at 37° C. for 30 minutes in a 50 μl mixture containing HDAC assay buffer, 5 μg BSA, an HDAC substrate, a HDAC enzyme and a test compound. After enzymatic reactions, 50 μl of 2×HDAC Developer was added to each well for the HDAC enzymes and the plate was incubated at room temperature for an additional 15 minutes. Fluorescence intensity was measured at an excitation of 360 nm and an emission of 460 nm using a Tecan Infinite M1000 microplate reader. HDAC activity assays were performed in duplicate at each concentration. The fluorescent intensity data were analyzed using the computer software, Graphpad Prism. In the absence of the compound, the fluorescent intensity (Ft) in each data set was defined as 100% activity. In the absence of HDAC, the fluorescent intensity (Fb) in each data set was defined as 0% activity. The percent activity in the presence of each compound was calculated according to the following equation: % activity=(F−Fb)/(Ft−Fb), where F=the fluorescent intensity in the presence of the compound. The values of % activity versus a series of compound concentrations were then plotted using non-linear regression analysis of Sigmoidal dose-response curve generated with the equation Y=B+(T−B)/1+10((Log EC50−X)×Hill Slope), where Y=percent activity, B=minimum percent activity, T=maximum percent activity, X=logarithm of compound and Hill Slope=slope factor or Hill coefficient. The IC50 value was determined by the concentration causing a half-maximal percent activity.

solubility at 90 min (Saturation solubility): 33.6 µg/mL (≈ 82.9 µM) | IC50 (HDAC1): 0.39 µM | IC50 (HDAC2): 0.91 µM | IC50 (HDAC7): > 10 µM | IC50 (HDAC8): > 10 µM | IC50 (HDAC11): > 10 µM
SMILES: Cc1ccc(/C=C/CC(=O)Nc2ccc(C(=O)Nc3ccc(F)cc3N)nc2)cn1 [GNTbm-02, 5-((E)-4-(6-methylpyridin-3-yl)but-3-enamido)-N-(2-amino-4-fluorophenyl)pyridine-2-carboxamide]
IC50 (M10): 4.31 ± 0.16 µM | IC50 (MDA-MB-231): 13.5 ± 1.78 µM | IC50 (MDA-MB-453): 1.69 ± 0.008 µM | IC50 (SW48): 2.51 ± 0.11 µM | Cell cycle arrest (M10 cells): significantly induced cell cycle arrest of M10 cells in the G2/M phase | Cells in G2/M phase (M10 cells): 16.2% | HDAC7 Inhibition at 10 μM (HDAC7; 10 μM): not inhibited; also recorded: No Inhibition at 10 μM | HDAC8 Inhibition at 10 μM (HDAC8; 10 μM): not inhibited; also recorded: No Inhibition at 10 μM | HDAC11 Inhibition at 10 μM (HDAC11; 10 μM): not inhibited; also recorded: No Inhibition at 10 μM
